Test results from the NIST ThermoML archive (doi:10.1007/s10765-005-8592-5).
Where “and” joins values, the source holds several entries; their conditions need not be identical. Identical values can stand only once. ± gives the expanded uncertainty stated by the source.

Test: molar heat capacity at constant volume
Settings: Fluid (supercritical or subcritical phases), Vacuum adiabatic calorimetry

CC(C)C [2-methylpropane]
Settings	molar heat capacity at constant volume
415.15 K, 4254 kPa	222.08 ± 9 J/K/mol and 230.8 ± 9.3 J/K/mol
420.15 K, 4664 kPa	202.67 ± 8.1 J/K/mol
420.15 K, 4665 kPa	202.96 ± 8.1 J/K/mol
425.15 K, 5082 kPa	186.05 ± 8 J/K/mol
425.15 K, 5083 kPa	187.1 ± 8.4 J/K/mol

CCC [propane]
Settings	molar heat capacity at constant volume [J/K/mol]
270.15 K, 4427 kPa	71.74 ± 2.9
275.15 K, 7953 kPa	71.26 ± 2.9
280.15 K, 11458 kPa	71.3 ± 2.9
285.15 K, 14939 kPa	72.63 ± 2.9
290.15 K, 18398 kPa	73.46 ± 3
295.15 K, 21836 kPa	74.57 ± 3
300.15 K, 25251 kPa	74.61 ± 3
305.15 K, 28640 kPa	74.35 ± 3
310.15 K, 6561 kPa	74.57 ± 3
315.15 K, 9049 kPa	75.23 ± 3
320.15 K, 11532 kPa	76.15 ± 3
325.15 K, 3660 kPa	77.96 ± 3.1
325.15 K, 14008 kPa	76.37 ± 3
330.15 K, 5594 kPa	78.75 ± 3.2
330.15 K, 16475 kPa	76.64 ± 3.1
335.15 K, 7530 kPa	78.31 ± 3.1
335.15 K, 18934 kPa	76.9 ± 3.1
340.15 K, 9468 kPa	77.7 ± 3.1
340.15 K, 21386 kPa	77.21 ± 3.1
345.15 K, 11404 kPa	77.26 ± 3.1
345.15 K, 23827 kPa	76.33 ± 3
350.15 K, 13339 kPa	79.46 ± 3.2
350.15 K, 26253 kPa	77.52 ± 3.1
355.15 K, 15273 kPa	77.39 ± 3.1
355.15 K, 28668 kPa	77.43 ± 3.1
360.15 K, 17203 kPa	77.74 ± 3.1
365.15 K, 19126 kPa	78.62 ± 3.1
370.15 K, 21044 kPa	79.15 ± 3.2
375.15 K, 5095 kPa	98.6 ± 4
380.15 K, 5744 kPa	93.04 ± 3.7
385.15 K, 6404 kPa	89.6 ± 3.6
390.15 K, 7072 kPa	86.07 ± 3.4
395.15 K, 7746 kPa	84.84 ± 3.4
400.15 K, 8425 kPa	80.43 ± 5.6
405.15 K, 9109 kPa	78.84 ± 3.2
410.15 K, 9795 kPa	79.99 ± 3.2
420.15 K, 11176 kPa	79.81 ± 3.2
425.15 K, 11869 kPa	81.75 ± 3.3
